Laboratory results as given in PMC9782211 (Microorganisms, 2022).
pIC50: −log10 of the molar value.

What was measured:
[1] = test system: human mononuclear cells (hMNCs); test: MTT test, metabolic activity of human mononuclear cells; format: cell-based
Procedure: Furthermore, the MTT assay was performed to determine the metabolic activity of the cells. In this test, the determination of cell viability is based on the reduction of the yellow water-soluble substance 3-(4,5-Dimethylthiazol-2-yl)-2,5-diphenyltetrazoliumbromid (MTT) into a blue-violet water-insoluble formacan.

[2] = biological target: T1, hERG ion channel (gene ID 3757) (Homo sapiens, UniProt Q12809); test: Automated planar patch clamp (QPatch), hERG in CHO cells; format: cell-based; conditions: for relative remaining hERG current: QPatch
T1 construct: expressed in transfected cells
T1 sequence (Q12809 whole entry): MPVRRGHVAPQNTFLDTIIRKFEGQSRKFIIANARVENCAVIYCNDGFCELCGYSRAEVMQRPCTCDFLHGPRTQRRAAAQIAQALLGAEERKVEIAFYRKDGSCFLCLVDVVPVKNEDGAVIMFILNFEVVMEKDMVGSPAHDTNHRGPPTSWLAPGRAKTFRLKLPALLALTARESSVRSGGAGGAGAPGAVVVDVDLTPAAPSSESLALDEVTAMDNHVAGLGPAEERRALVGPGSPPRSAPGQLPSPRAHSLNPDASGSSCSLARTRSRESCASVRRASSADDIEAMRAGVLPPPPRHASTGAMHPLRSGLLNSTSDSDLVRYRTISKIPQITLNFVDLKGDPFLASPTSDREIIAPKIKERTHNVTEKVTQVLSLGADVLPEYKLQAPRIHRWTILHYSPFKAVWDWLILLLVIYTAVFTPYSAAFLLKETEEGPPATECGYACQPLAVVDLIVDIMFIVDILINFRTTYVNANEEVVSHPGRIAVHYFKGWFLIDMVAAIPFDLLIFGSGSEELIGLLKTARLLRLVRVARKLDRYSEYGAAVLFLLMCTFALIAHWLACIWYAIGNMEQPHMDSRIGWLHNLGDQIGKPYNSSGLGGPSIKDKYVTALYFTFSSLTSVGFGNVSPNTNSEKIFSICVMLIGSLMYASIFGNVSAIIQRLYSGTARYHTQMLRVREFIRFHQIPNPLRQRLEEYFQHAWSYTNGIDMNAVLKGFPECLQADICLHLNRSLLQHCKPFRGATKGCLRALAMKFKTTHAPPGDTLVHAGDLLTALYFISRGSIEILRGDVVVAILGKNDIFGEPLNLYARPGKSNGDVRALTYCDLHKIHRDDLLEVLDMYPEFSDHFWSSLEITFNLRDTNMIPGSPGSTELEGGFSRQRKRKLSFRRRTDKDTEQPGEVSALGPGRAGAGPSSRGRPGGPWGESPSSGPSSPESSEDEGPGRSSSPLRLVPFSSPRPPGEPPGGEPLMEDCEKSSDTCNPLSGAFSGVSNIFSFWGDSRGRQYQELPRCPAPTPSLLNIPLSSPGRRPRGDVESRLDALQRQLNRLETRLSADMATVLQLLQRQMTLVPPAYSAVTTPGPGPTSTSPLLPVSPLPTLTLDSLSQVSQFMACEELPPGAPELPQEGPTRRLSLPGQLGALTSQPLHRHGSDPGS
Procedure: For automated patch clamp experiments, QPatch, a planar patch clamp robot, was used. QPatch experiments were performed as previously described. […] Patch clamp experiments were performed in the whole-cell voltage clamp mode on a planar patch clamp chip. Successfully clamped cells were stimulated with the following stimulation protocol: From a holding potential of −80 mV, the cells were partially depolarized to −50 mV to test the leak current at this potential where hERG channels are closed. This was followed by a depolarization to +40 mV. At this depolarized potential, the hERG channels alternate between the open and inactivated states. After partially repolarizing to −50 mV, the inactivated subpopulation of hERG channels rapidly recovers from inactivation and switches into the open state, from where the channels slowly close.
Aspidasept (Pep19-2.5) was applied at nominal concentrations of 1 µg/mL, 10 µg/mL, and 100 µg/mL, and remaining hERG mediated potassium channel currents normalized to initial currents were calculated.

[3] = test system: male and female Wistar rats; test: 14-day repeated dose toxicology, continuous intravenous infusion; format: in vivo, rat
Procedure: Continuous intravenous infusion was performed over 14 days with 0.5 mg/kg, 3.2 mg/kg, and 20.0 mg/kg Pep19-2.5 and compared to the vehicle in male and female Wistar rats. Groups comprised 10 animals per gender, with an additional 5 animals per gender for recovery animals in the vehicle and high dose groups. The details of the 14-day repeated dose toxicity study will be published elsewhere.
Continuous intravenous infusion was performed over 14 days with 0.5 mg/kg, 3.2 mg/kg and 20.0 mg/kg Pep19-2.5 and compared to the vehicle in male and female Wistar rats. Groups comprised 10 animals per gender, with an additional 5 animals per gender for recovery animals in the vehicle and high dose groups. Based on the parameters determined, the following results were found: […]

SMILES: N=C(N)NCCC[C@H](NC(=O)[C@H](Cc1ccc(O)cc1)NC(=O)[C@H](CCCCN)NC(=O)[C@H](CCCCN)NC(=O)[C@H](CS)NC(=O)CN)C(=O)N[C@@H](CCCNC(=N)N)C(=O)N[C@@H](Cc1ccccc1)C(=O)N[C@@H](CCCNC(=N)N)C(=O)N[C@@H](Cc1c[nH]c2ccccc12)C(=O)N[C@@H](CCCCN)C(=O)N[C@@H](Cc1ccccc1)C(=O)N[C@@H](CCCCN)C(=O)NCC(=O)N[C@@H](CCCCN)C(=O)N[C@@H](Cc1ccccc1)C(=O)N[C@@H](Cc1c[nH]c2ccccc12)C(=O)N[C@@H](Cc1ccccc1)C(=O)N[C@@H](Cc1c[nH]c2ccccc12)C(=O)NCC(N)=O [Pep19-2.5]
- metabolic state of the hMNC ([1]; at 100 μg/mL): decreases dramatically
- concentration above which cytotoxicity increases (MTT) ([1]; hMNC, MTT test, Figure 1): above 20 μg/mL
- Rel. Rem. Current ± SD (QPatch) ([2]; 1 µg/mL, fraction): 0.97 ± 0.02
- Rel. Rem. Current (QPatch, 20 min Application) ([2]; 10 µg/mL, fraction): 0.92
- Rel. Rem. Current ± SD (QPatch) ([2]; 10 µg/mL, fraction): 0.95 ± 0.02
- relative remaining hERG current ([2]; 1 µg/mL (Aspidasept n = 4; Pep19-4LF n = 3)): 97.2 ± 2.2%
- relative remaining hERG current ([2]; 10 µg/mL (Aspidasept n = 4; Pep19-4LF n = 1)): 95.2 ± 2.5%
- relative remaining hERG current ([2]; 10 µg/mL applied for up to 20 min): 92.2%
- pIC50 ([2]; estimated, no significant effect at highest concentration tested (10 µg/mL), read-out: hypothetical IC50 on hERG-mediated potassium current): < 5.43
- injection site findings ([3]; 20 mg/kg dose group): local irritating effect
- body weight gain ([3]; all dose groups): No statistically significant effect
- ophthalmology, clinical chemistry, urine, organ weights ([3]; all dose groups): not affected
- aPTT ([3]; female Wistar rats, 0.5 mg/kg/day, n = 10): 19.9 ± 2.2 s
- PT ([3]; female, 0.5 mg/kg/day, n = 10): 20.3 ± 2.5 s
- TT ([3]; female, 0.5 mg/kg/day, n = 10): 25.7 ± 1.0 s
- TT ([3]; female, 3.2 mg/kg/day, n = 10): 25.4 ± 1.0 s
- TT ([3]; female, 20.0 mg/kg/day, n = 10): 25.8 ± 0.7 s
- mortality ([3]; high dose group 20 mg/kg): One male of the high dose group died
- reticulocytes ([3]; high dose group, both genders, complete recovery): slightly reduced
- behavioural findings ([3]; high dose group, single animals): test item-related behavioural findings (increased activity, muscle tremor, increased incidence of animals showing signs of discomfort, such as chromorhinorrhea or piloerection)
- aPTT ([3]; male Wistar rats, 0.5 mg/kg/day, end of infusion, mean ± SD, n = 9): 19.9 ± 1.7 s
- TT ([3]; male, 0,5 mg/kg/day, n = 9): 25.3 ± 1.0 s
- PT ([3]; male, 0.5 mg/kg/day, n = 9): 20.0 ± 1.1 s
- PT ([3]; male, 3.2 mg/kg/day, n = 10): 21.5 ± 1.3 s
- TT ([3]; male, 3.2 mg/kg/day, n = 10): 25.0 ± 0.9 s
- aPTT ([3]; male, 3.2 mg/kg/day, n = 10): 18.6 ± 1.8 s
- TT ([3]; male, 20.0 mg/kg/day, n = 7): 25.0 ± 0.8 s
- PT ([3]; male, n = 7, printed 0.5 mg/kg/day): 20.9 ± 1.3 s
- histopathological systemic toxicity ([3]; rat, in vivo): absence of any histopathological systemic toxicity
